Test results reported in the supplement of paper PMC10307832.

Columns and labels:
Test in all cases: relative viability (nuclei count vs DMSO), 5 days (fraction); higher = more cells survive
[1] = test system: NCI-H1437
In short: (§1)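 A single step with final 0.05% Triton X-100, 1% formaldehyde and 1 ug/ml Hoechst fixed the cells and stained nuclei 5 days after treatment. Lung cancer cell lines in 1536-well plates had been treated by pin tool the day after seeding with one drug alone or a fixed anchor-drug dose plus five library-drug doses (not always all listed) in √10 steps, and nuclei were counted on 4× images. Relative viability is the ratio of nuclei in treated wells to nuclei in vehicle wells, taken as the median of duplicate plates.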

[2] = test system: SK-MES-1
In short: as §1

[3] = test system: NCI-H358
In short: as §1

[4] = test system: HCC-78
In short: as §1

[5] = test system: PC-14
In short: as §1

[6] = test system: NCI-H661
In short: as §1

[7] = test system: NCI-H1792
In short: as §1

[8] = test system: HCC-44
In short: as §1

[9] = test system: HCC-827
In short: as §1

[10] = test system: NCI-H727
In short: as §1

[11] = test system: SK-LU-1
In short: as §1

[12] = test system: NCI-H1944
In short: as §1

[13] = test system: ChaGo-K-1
In short: as §1

[14] = test system: LCLC-103H
In short: as §1

[15] = test system: UMC-11
In short: as §1

[16] = test system: HCC-366
In short: as §1

[17] = test system: NCI-H2085
In short: as §1

[18] = test system: EPLC-272H
In short: as §1

[19] = test system: COR-L 105
In short: as §1

[20] = test system: HCC-15
In short: as §1

[21] = test system: NCI-H3122
In short: as §1

Question: Which results are given for COCC1(CO)C(=O)C2CCN1CC2 (stereo not given) [PRIMA-1MET] + CS(=O)(=O)N1CCN(Cc2cc3nc(-c4cccc5[nH]ncc45)nc(N4CCOCC4)c3s2)CC1 [Pictilisib] (partner 1 µM)?
Answer: relative viability ([1]; first compound 0.2 µM): 0.463; relative viability ([1]; first compound 0.6325 µM): 0.481; relative viability ([1]; first compound 2 µM): 0.356; relative viability ([1]; first compound 6.325 µM): 0.466; relative viability ([1]; first compound 20 µM): 0.412; relative viability ([2]; first compound 0.2 µM): 0.449; relative viability ([2]; first compound 0.6325 µM): 0.384; relative viability ([2]; first compound 2 µM): 0.359; relative viability ([2]; first compound 6.325 µM): 0.381; relative viability ([2]; first compound 20 µM): 0.349; relative viability ([3]; first compound 0.2 µM): 0.392; relative viability ([3]; first compound 0.6325 µM): 0.318; relative viability ([3]; first compound 6.325 µM): 0.319; relative viability ([3]; first compound 20 µM): 0.0332; relative viability ([4]; first compound 0.2 µM): 0.226; relative viability ([4]; first compound 0.6325 µM): 0.222; relative viability ([4]; first compound 6.325 µM): 0.138; relative viability ([4]; first compound 20 µM): 0.0597; relative viability ([5]; first compound 0.2 µM): 0.813; relative viability ([5]; first compound 0.6325 µM): 0.724; relative viability ([5]; first compound 2 µM): 0.692; relative viability ([5]; first compound 6.325 µM): 0.797; relative viability ([5]; first compound 20 µM): 0.401; relative viability ([6]; first compound 0.2 µM): 0.396; relative viability ([6]; first compound 0.6325 µM): 0.238; relative viability ([6]; first compound 6.325 µM): 0.447; relative viability ([6]; first compound 20 µM): 0.262; relative viability ([7]; first compound 0.2 µM): 0.227; relative viability ([7]; first compound 0.6325 µM): 0.223; relative viability ([7]; first compound 2 µM): 0.222; relative viability ([7]; first compound 6.325 µM): 0.327; relative viability ([7]; first compound 20 µM): 0.271; relative viability ([8]; first compound 0.2 µM): 0.569; relative viability ([8]; first compound 0.6325 µM): 0.414; relative viability ([8]; first compound 2 µM): 0.426; relative viability ([8]; first compound 6.325 µM): 0.651; relative viability ([8]; first compound 20 µM): 0.611; relative viability ([9]; first compound 0.2 µM): 1.33; relative viability ([9]; first compound 0.6325 µM): 0.907; relative viability ([9]; first compound 2 µM): 0.863; relative viability ([9]; first compound 6.325 µM): 1.08; relative viability ([9]; first compound 20 µM): 0.81; relative viability ([10]; first compound 0.2 µM): 0.258; relative viability ([10]; first compound 0.6325 µM): 0.341; relative viability ([10]; first compound 2 µM): 0.241; relative viability ([10]; first compound 6.325 µM): 0.178; relative viability ([10]; first compound 20 µM): 0.109; relative viability ([11]; first compound 0.2 µM): 0.592; relative viability ([11]; first compound 0.6325 µM): 0.549; relative viability ([11]; first compound 2 µM): 0.357; relative viability ([11]; first compound 6.325 µM): 0.697; relative viability ([11]; first compound 20 µM): 0.142; relative viability ([12]; first compound 0.2 µM): 0.332; relative viability ([12]; first compound 0.6325 µM): 0.324; relative viability ([12]; first compound 6.325 µM): 0.328; relative viability ([12]; first compound 20 µM): 0.363; relative viability ([13]; first compound 0.2 µM): 0.732; relative viability ([13]; first compound 0.6325 µM): 0.468; relative viability ([13]; first compound 2 µM): 0.84; relative viability ([13]; first compound 6.325 µM): 0.752; relative viability ([13]; first compound 20 µM): 0.328; relative viability ([14]; first compound 0.2 µM): 0.612; relative viability ([14]; first compound 0.6325 µM): 0.583; relative viability ([14]; first compound 2 µM): 0.457; relative viability ([14]; first compound 6.325 µM): 0.583; relative viability ([14]; first compound 20 µM): 0.478; relative viability ([15]; first compound 0.2 µM): 0.945; relative viability ([15]; first compound 0.6325 µM): 0.759; relative viability ([15]; first compound 2 µM): 0.594; relative viability ([15]; first compound 6.325 µM): 0.825; relative viability ([15]; first compound 20 µM): 0.786; relative viability ([16]; first compound 0.2 µM): 0.204; relative viability ([16]; first compound 0.6325 µM): 0.118; relative viability ([16]; first compound 6.325 µM): 0.123; relative viability ([16]; first compound 20 µM): 0.0846; relative viability ([17]; first compound 0.2 µM): 0.44; relative viability ([17]; first compound 0.6325 µM): 0.419; relative viability ([17]; first compound 2 µM): 0.33; relative viability ([17]; first compound 6.325 µM): 0.4; relative viability ([17]; first compound 20 µM): 0.359; relative viability ([18]; first compound 0.2 µM): 0.295; relative viability ([18]; first compound 0.6325 µM): 0.251; relative viability ([18]; first compound 2 µM): 0.234; relative viability ([18]; first compound 6.325 µM): 0.305; relative viability ([18]; first compound 20 µM): 0.124; relative viability ([19]; first compound 0.2 µM): 0.387; relative viability ([19]; first compound 0.6325 µM): 0.346; relative viability ([19]; first compound 2 µM): 0.324; relative viability ([19]; first compound 6.325 µM): 0.245; relative viability ([19]; first compound 20 µM): 0.2; relative viability ([20]; first compound 0.2 µM): 0.511; relative viability ([20]; first compound 0.6325 µM): 0.582; relative viability ([20]; first compound 2 µM): 0.568; relative viability ([20]; first compound 6.325 µM): 0.638; relative viability ([20]; first compound 20 µM): 0.618; relative viability ([21]; first compound 0.2 µM): 0.288; relative viability ([21]; first compound 0.6325 µM): 0.647; relative viability ([21]; first compound 2 µM): 0.659; relative viability ([21]; first compound 6.325 µM): 0.429; relative viability ([21]; first compound 20 µM): 0.52
